Reference: PubChem BioAssay (NCI)
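Interpolation was linear, between the two tested concentrations surrounding the appropriate level; five concentrations were tested over 48 hours in 96-well plates. TGI marks complete inhibition of growth.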

Legend:
Assay in all cases: NCI tumour cell line growth inhibition, 48 h
[1] = system: 786-0 renal
[2] = system: A498 renal
[3] = system: A549 NSCLC
[4] = system: ACHN renal
[5] = system: CAKI-1 renal
[6] = system: CCRF-CEM leukemia
[7] = system: COLO 205 colon
[8] = system: DLD-1 colon
[9] = system: DMS 114 small cell lung
[10] = system: DMS 273 small cell lung
[11] = system: EKVX NSCLC
[12] = system: HCC-2998 colon
[13] = system: HCT-116 colon
[14] = system: HCT-15 colon
[15] = system: HL-60(TB) leukemia
[16] = system: HOP-18 NSCLC
[17] = system: HOP-62 NSCLC
[18] = system: HOP-92 NSCLC
[19] = system: HT29 colon
[20] = system: IGROV1 ovarian
[21] = system: K-562 leukemia
[22] = system: KM12 colon
[23] = system: KM20L2 colon
[24] = system: LOX IMVI melanoma
[25] = system: LXFL 529 NSCLC
[26] = system: M14 melanoma
[27] = system: MALME-3M melanoma
[28] = system: MOLT-4 leukemia
[29] = system: NCI-H226 lung
[30] = system: NCI-H23 lung
[31] = system: NCI-H460 lung
[32] = system: NCI-H522 lung
[33] = system: OVCAR-3 ovarian
[34] = system: OVCAR-4 ovarian
[35] = system: OVCAR-5 ovarian
[36] = system: OVCAR-8 ovarian
[37] = system: RPMI-8226 leukemia
[38] = system: RXF 393 renal
[39] = system: RXF-631 renal
[40] = system: SF-268 CNS
[41] = system: SF-295 CNS
[42] = system: SF-539 CNS
[43] = system: SK-MEL-2 melanoma
[44] = system: SK-MEL-28 melanoma
[45] = system: SK-MEL-5 melanoma
[46] = system: SK-OV-3 ovarian
[47] = system: SN12C renal
[48] = system: SNB-19 CNS
[49] = system: SNB-75 CNS
[50] = system: SNB-78 CNS
[51] = system: SR leukemia
[52] = system: SW-620 colon
[53] = system: TK-10 renal
[54] = system: U251 CNS
[55] = system: UACC-257 melanoma
[56] = system: UACC-62 melanoma
[57] = system: UO-31 renal
[58] = system: XF 498 CNS
[59] = system: M19-MEL melanoma
[60] = system: MCF7 breast
[61] = system: NCI/ADR-RES ovarian
[62] = system: P388 leukemia
[63] = system: P388/ADR leukemia
[64] = system: SN12K1 renal

O=C1NC(=O)C2C(=O)NC(=O)C1C2c1c(Cl)cccc1Cl (centres undefined)
TGI [1]: > 100 µM | TGI [2]: > 100 µM | TGI [3]: > 100 µM | TGI [4]: > 100 µM | TGI [5]: > 100 µM | TGI [6]: > 69.6 µM | TGI [7]: > 56.3 µM | TGI [8]: > 60.8 µM | TGI [9]: > 53.5 µM | TGI [10]: > 57.5 µM | TGI [11]: > 100 µM | TGI [12]: > 100 µM | TGI [13]: > 58.8 µM | TGI [14]: > 100 µM | TGI [15]: > 63.4 µM | TGI [16]: > 100 µM | TGI [17]: > 100 µM | TGI [18]: > 100 µM | TGI [19]: > 100 µM | TGI [20]: > 100 µM | TGI [21]: > 71.7 µM | TGI [22]: > 100 µM | TGI [23]: > 83.6 µM | TGI [24]: > 57.4 µM | TGI [25]: > 100 µM | TGI [26]: > 100 µM | TGI [27]: > 100 µM | TGI [28]: > 100 µM | TGI [29]: > 100 µM | TGI [30]: > 100 µM | TGI [31]: > 58.2 µM | TGI [32]: > 100 µM | TGI [33]: > 100 µM | TGI [34]: > 100 µM | TGI [35]: > 100 µM | TGI [36]: > 100 µM | TGI [37]: > 67.2 µM | TGI [38]: 98.1 µM | TGI [39]: > 100 µM | TGI [40]: > 96.7 µM | TGI [41]: > 100 µM | TGI [42]: > 100 µM | TGI [43]: > 100 µM | TGI [44]: > 100 µM | TGI [45]: > 100 µM | TGI [46]: > 100 µM | TGI [47]: > 100 µM | TGI [48]: > 100 µM | TGI [49]: > 100 µM | TGI [50]: > 100 µM | TGI [51]: > 100 µM | TGI [52]: > 47.1 µM | TGI [53]: > 100 µM | TGI [54]: > 100 µM | TGI [55]: > 100 µM | TGI [56]: > 100 µM | TGI [57]: > 100 µM | TGI [58]: > 100 µM

O=C(CCl)NNC1=Nc2ccc(Cl)cc2SC1
TGI [2]: 35.1 µM | TGI [3]: 26.2 µM | TGI [6]: 3.08 µM | TGI [7]: 3.47 µM | TGI [8]: 3.6 µM | TGI [9]: 3.86 µM | TGI [10]: 8.29 µM | TGI [11]: 4.08 µM | TGI [12]: 9.97 µM | TGI [13]: 3.2 µM | TGI [14]: 3.97 µM | TGI [15]: 3.3 µM | TGI [16]: 3.36 µM | TGI [17]: 31.8 µM | TGI [18]: 3.02 µM | TGI [19]: 3.4 µM | TGI [20]: 3.58 µM | TGI [21]: 5.34 µM | TGI [22]: 9.94 µM | TGI [23]: 9.18 µM | TGI [24]: 2.48 µM | TGI [59]: 5.46 µM | TGI [27]: 3.31 µM | TGI [60]: 7.62 µM | TGI [28]: 2.86 µM | TGI [29]: 6.16 µM | TGI [30]: 6.27 µM | TGI [31]: 20.4 µM | TGI [32]: 1.85 µM | TGI [61]: 3.79 µM | TGI [33]: 3.28 µM | TGI [34]: 5.63 µM | TGI [35]: 4.16 µM | TGI [36]: 2.02 µM | TGI [62]: 1.07 µM | TGI [63]: 3.52 µM | TGI [37]: 5.01 µM | TGI [38]: 3.44 µM | TGI [40]: 3.92 µM | TGI [41]: 28.4 µM | TGI [42]: 3.77 µM | TGI [43]: 14 µM | TGI [44]: 3.92 µM | TGI [45]: 6.54 µM | TGI [46]: 16.7 µM | TGI [47]: 4.07 µM | TGI [64]: 7.94 µM | TGI [48]: 26.4 µM | TGI [49]: 5.14 µM | TGI [50]: 4.51 µM | TGI [52]: 4.22 µM | TGI [54]: 4.28 µM | TGI [55]: 7.53 µM | TGI [56]: 5.46 µM | TGI [57]: 3.49 µM | TGI [58]: 3.92 µM

COC(=O)c1onc(-c2c(OC)cc(OC)cc2OC)c1C(=O)OC
TGI [1]: > 100 µM | TGI [3]: > 100 µM | TGI [4]: > 100 µM | TGI [5]: > 100 µM | TGI [6]: > 100 µM | TGI [7]: > 100 µM | TGI [8]: > 100 µM | TGI [9]: > 100 µM | TGI [10]: > 100 µM | TGI [11]: > 100 µM | TGI [12]: > 100 µM | TGI [13]: > 100 µM | TGI [14]: > 100 µM | TGI [15]: > 100 µM | TGI [16]: > 100 µM | TGI [17]: > 100 µM | TGI [18]: > 100 µM | TGI [19]: > 100 µM | TGI [20]: > 100 µM | TGI [21]: > 100 µM | TGI [22]: > 100 µM | TGI [23]: > 100 µM | TGI [24]: > 100 µM | TGI [25]: > 100 µM | TGI [26]: > 100 µM | TGI [59]: > 100 µM | TGI [27]: > 100 µM | TGI [28]: > 100 µM | TGI [29]: > 100 µM | TGI [30]: > 100 µM | TGI [31]: > 100 µM | TGI [32]: > 100 µM | TGI [33]: > 100 µM | TGI [34]: > 100 µM | TGI [35]: > 100 µM | TGI [36]: > 100 µM | TGI [37]: > 100 µM | TGI [38]: > 100 µM | TGI [40]: > 100 µM | TGI [41]: > 100 µM | TGI [43]: > 100 µM | TGI [44]: > 100 µM | TGI [45]: > 100 µM | TGI [46]: > 100 µM | TGI [48]: > 100 µM | TGI [49]: > 100 µM | TGI [50]: > 100 µM | TGI [51]: > 100 µM | TGI [52]: > 100 µM | TGI [53]: > 100 µM | TGI [54]: > 100 µM | TGI [55]: > 100 µM | TGI [56]: > 100 µM | TGI [57]: > 100 µM | TGI [58]: > 100 µM
